Reference: the kinase profiling compilation of Christmann-Franck et al. (2016)

Key:
Experiment in all cases: radiometric filter-binding kinase assay
AURKA (human) = AURKA (human) (UniProt O14965); settings: compound 100.0 µM; ATP 5 µM
AURKB (human) = AURKB (human) (UniProt Q96GD4); settings: compound 100.0 µM; ATP 20 µM
BRSK2 (human) = BRSK2 (human) (UniProt Q8IWQ3); settings: compound 100.0 µM; ATP 50 µM
BTK (human) = BTK (human) (UniProt Q06187); settings: compound 100.0 µM; ATP 50 µM
CAMKK2 (human) = CAMKK2 (human) (UniProt Q96RR4); settings: compound 100.0 µM; ATP 20 µM
CHEK1 (human) = CHEK1 (human) (UniProt O14757); settings: compound 100.0 µM; ATP 20 µM
CaMK1 (human) = CaMK1 (human) (UniProt Q14012); settings: compound 100.0 µM; ATP 50 µM
DAPK1 (human) = DAPK1 (human) (UniProt P53355); settings: compound 100.0 µM; ATP 5 µM
DYRK1A (human) = DYRK1A (human) (UniProt Q13627); settings: compound 100.0 µM; ATP 50 µM
DYRK3 (human) = DYRK3 (human) (UniProt O43781); settings: compound 100.0 µM; ATP 5 µM
EPHB1 (human) = EPHB1 (human) (UniProt P54762); settings: compound 100.0 µM; ATP 20 µM
ERBB4 (human) = ERBB4 (human) (UniProt Q15303); settings: compound 100.0 µM; ATP 5 µM
GSK3B (human) = GSK3B (human) (UniProt P49841); settings: compound 100.0 µM; ATP 5 µM
HIPK1 (human) = HIPK1 (human) (UniProt Q86Z02); settings: compound 100.0 µM; ATP 20 µM
HIPK3 (human) = HIPK3 (human) (UniProt Q9H422); settings: compound 100.0 µM; ATP 20 µM
IKBKE (human) = IKBKE (human) (UniProt Q14164); settings: compound 100.0 µM; ATP 50 µM
MAP2K1 (human) = MAP2K1 (human) (UniProt Q02750); settings: compound 100.0 µM; ATP 5 µM
MAP2K6 (human) = MAP2K6 (human) (UniProt P52564); settings: compound 100.0 µM; ATP 50 µM
MAP3K9 (human) = MAP3K9 (human) (UniProt P80192); settings: compound 100.0 µM; ATP 20 µM
MAPK10 (human) = MAPK10 (human) (UniProt P53779); settings: compound 100.0 µM; ATP 20 µM
MAPK15 (human) = MAPK15 (human) (UniProt Q8TD08); settings: compound 100.0 µM; ATP 5 µM
MAPKAPK2 (human) = MAPKAPK2 (human) (UniProt P49137); settings: compound 100.0 µM; ATP 20 µM
MARK2 (human) = MARK2 (human) (UniProt Q7KZI7); settings: compound 100.0 µM; ATP 20 µM
MYLK (human) = MYLK (human) (UniProt Q15746); settings: compound 100.0 µM; ATP 50 µM
NEK6 (human) = NEK6 (human) (UniProt Q9HC98); settings: compound 100.0 µM; ATP 50 µM
NTRK1 (human) = NTRK1 (human) (UniProt P04629); settings: compound 100.0 µM; ATP 20 µM
NUAK1 (human) = NUAK1 (human) (UniProt O60285); settings: compound 100.0 µM; ATP 20 µM
PAK7 (human) = PAK7 (human) (UniProt Q9P286); settings: compound 100.0 µM; ATP 20 µM
PHKG1 (human) = PHKG1 (human) (UniProt Q16816); settings: compound 100.0 µM; ATP 50 µM
PIM3 (human) = PIM3 (human) (UniProt Q86V86); settings: compound 100.0 µM; ATP 20 µM
[1] = biological target: PRKAA1 PRKAB2 PRKAG1 (human) (UniProt O43741+Q13131+P54619); settings: compound 100.0 µM; ATP 20 µM
PRKCA (human) = PRKCA (human) (UniProt P17252); settings: compound 100.0 µM; ATP 20 µM
PRKCG (human) = PRKCG (human) (UniProt P05129); settings: compound 100.0 µM; ATP 20 µM
RIPK2 (human) = RIPK2 (human) (UniProt O43353); settings: compound 100.0 µM; ATP 20 µM
[2] = tested on: RPS6KB1 (human), P23443 [T412E]; settings: compound 100.0 µM; ATP 20 µM
SRC (human) = SRC (human) (UniProt P12931); settings: compound 100.0 µM; ATP 50 µM
STK33 (human) = STK33 (human) (UniProt Q9BYT3); settings: compound 100.0 µM; ATP 50 µM
SYK (human) = SYK (human) (UniProt P43405); settings: compound 100.0 µM; ATP 20 µM
TBK1 (human) = TBK1 (human) (UniProt Q9UHD2); settings: compound 100.0 µM; ATP 50 µM
TEK (human) = TEK (human) (UniProt Q02763); settings: compound 100.0 µM; ATP 20 µM

MAP2K1 (human), sequence (Q02750 whole entry, looked up): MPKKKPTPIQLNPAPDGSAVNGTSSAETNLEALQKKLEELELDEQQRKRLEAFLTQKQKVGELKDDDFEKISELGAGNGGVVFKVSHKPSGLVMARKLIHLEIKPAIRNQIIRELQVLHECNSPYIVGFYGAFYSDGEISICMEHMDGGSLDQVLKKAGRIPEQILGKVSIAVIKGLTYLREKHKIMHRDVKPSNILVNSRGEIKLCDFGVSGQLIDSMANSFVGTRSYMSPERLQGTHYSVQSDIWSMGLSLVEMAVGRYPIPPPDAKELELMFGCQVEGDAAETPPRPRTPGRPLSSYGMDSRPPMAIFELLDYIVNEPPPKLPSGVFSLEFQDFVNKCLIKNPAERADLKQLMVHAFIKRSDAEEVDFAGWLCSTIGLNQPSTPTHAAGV
DYRK3 (human), sequence (O43781 whole entry, looked up): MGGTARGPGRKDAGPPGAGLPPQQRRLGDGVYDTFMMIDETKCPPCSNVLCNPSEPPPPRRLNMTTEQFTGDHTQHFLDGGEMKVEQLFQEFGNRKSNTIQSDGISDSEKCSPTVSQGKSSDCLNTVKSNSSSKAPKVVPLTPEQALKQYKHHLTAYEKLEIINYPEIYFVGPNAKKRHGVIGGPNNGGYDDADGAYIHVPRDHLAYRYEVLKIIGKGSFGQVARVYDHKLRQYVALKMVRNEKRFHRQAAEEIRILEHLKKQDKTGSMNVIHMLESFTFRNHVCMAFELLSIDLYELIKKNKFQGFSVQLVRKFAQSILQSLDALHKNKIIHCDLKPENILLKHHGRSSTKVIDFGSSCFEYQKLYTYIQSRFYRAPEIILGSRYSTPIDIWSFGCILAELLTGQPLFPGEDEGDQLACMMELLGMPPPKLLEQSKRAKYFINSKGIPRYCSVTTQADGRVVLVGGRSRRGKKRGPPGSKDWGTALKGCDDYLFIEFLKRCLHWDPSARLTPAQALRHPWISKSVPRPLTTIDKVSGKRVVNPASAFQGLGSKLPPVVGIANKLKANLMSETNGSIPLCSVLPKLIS
GSK3B (human), sequence (P49841 whole entry, looked up): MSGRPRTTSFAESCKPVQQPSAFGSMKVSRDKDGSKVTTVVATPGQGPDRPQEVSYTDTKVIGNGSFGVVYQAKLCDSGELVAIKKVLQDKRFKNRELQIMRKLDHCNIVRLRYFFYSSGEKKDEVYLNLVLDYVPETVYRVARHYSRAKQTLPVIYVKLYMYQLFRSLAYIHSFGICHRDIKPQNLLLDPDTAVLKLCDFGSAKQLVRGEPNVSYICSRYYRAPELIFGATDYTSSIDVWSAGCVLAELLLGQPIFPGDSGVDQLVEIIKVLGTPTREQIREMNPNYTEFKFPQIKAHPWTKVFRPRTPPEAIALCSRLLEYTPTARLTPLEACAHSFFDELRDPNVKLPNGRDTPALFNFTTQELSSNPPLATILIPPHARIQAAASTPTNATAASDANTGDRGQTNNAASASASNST
HIPK1 (human), sequence (Q86Z02 whole entry, looked up): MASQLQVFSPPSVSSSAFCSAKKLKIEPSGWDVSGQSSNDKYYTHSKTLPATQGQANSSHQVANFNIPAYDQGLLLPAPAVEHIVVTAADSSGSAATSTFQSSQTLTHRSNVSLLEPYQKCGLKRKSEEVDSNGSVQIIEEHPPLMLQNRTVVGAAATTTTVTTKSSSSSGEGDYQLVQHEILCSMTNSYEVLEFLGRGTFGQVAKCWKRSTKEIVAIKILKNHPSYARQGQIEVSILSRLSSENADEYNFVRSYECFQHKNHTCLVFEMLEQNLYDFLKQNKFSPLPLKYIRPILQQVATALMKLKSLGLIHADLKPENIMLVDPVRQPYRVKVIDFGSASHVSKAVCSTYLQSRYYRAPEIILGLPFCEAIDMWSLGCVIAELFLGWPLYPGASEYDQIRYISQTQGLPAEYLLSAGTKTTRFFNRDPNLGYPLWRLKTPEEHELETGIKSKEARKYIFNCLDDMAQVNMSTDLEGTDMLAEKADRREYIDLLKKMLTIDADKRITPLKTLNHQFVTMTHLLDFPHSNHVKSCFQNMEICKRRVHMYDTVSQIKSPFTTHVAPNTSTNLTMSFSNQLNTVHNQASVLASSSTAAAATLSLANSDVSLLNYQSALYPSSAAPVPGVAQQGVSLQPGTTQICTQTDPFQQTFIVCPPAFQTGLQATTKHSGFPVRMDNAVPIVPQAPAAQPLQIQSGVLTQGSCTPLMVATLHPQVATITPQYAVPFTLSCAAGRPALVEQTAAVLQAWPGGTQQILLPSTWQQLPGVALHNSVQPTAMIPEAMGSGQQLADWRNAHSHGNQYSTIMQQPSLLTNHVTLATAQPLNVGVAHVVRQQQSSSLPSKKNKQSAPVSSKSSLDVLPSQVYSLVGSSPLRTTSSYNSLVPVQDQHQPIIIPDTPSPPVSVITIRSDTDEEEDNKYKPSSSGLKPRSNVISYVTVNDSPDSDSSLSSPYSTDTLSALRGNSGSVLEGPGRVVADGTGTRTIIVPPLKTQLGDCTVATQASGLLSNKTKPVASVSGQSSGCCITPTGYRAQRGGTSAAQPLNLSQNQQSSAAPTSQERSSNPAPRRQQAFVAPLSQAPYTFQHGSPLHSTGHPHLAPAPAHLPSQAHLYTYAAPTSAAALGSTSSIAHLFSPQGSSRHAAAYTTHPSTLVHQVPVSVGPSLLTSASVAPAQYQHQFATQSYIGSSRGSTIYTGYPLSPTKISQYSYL
MYLK (human), sequence (Q15746 whole entry, looked up): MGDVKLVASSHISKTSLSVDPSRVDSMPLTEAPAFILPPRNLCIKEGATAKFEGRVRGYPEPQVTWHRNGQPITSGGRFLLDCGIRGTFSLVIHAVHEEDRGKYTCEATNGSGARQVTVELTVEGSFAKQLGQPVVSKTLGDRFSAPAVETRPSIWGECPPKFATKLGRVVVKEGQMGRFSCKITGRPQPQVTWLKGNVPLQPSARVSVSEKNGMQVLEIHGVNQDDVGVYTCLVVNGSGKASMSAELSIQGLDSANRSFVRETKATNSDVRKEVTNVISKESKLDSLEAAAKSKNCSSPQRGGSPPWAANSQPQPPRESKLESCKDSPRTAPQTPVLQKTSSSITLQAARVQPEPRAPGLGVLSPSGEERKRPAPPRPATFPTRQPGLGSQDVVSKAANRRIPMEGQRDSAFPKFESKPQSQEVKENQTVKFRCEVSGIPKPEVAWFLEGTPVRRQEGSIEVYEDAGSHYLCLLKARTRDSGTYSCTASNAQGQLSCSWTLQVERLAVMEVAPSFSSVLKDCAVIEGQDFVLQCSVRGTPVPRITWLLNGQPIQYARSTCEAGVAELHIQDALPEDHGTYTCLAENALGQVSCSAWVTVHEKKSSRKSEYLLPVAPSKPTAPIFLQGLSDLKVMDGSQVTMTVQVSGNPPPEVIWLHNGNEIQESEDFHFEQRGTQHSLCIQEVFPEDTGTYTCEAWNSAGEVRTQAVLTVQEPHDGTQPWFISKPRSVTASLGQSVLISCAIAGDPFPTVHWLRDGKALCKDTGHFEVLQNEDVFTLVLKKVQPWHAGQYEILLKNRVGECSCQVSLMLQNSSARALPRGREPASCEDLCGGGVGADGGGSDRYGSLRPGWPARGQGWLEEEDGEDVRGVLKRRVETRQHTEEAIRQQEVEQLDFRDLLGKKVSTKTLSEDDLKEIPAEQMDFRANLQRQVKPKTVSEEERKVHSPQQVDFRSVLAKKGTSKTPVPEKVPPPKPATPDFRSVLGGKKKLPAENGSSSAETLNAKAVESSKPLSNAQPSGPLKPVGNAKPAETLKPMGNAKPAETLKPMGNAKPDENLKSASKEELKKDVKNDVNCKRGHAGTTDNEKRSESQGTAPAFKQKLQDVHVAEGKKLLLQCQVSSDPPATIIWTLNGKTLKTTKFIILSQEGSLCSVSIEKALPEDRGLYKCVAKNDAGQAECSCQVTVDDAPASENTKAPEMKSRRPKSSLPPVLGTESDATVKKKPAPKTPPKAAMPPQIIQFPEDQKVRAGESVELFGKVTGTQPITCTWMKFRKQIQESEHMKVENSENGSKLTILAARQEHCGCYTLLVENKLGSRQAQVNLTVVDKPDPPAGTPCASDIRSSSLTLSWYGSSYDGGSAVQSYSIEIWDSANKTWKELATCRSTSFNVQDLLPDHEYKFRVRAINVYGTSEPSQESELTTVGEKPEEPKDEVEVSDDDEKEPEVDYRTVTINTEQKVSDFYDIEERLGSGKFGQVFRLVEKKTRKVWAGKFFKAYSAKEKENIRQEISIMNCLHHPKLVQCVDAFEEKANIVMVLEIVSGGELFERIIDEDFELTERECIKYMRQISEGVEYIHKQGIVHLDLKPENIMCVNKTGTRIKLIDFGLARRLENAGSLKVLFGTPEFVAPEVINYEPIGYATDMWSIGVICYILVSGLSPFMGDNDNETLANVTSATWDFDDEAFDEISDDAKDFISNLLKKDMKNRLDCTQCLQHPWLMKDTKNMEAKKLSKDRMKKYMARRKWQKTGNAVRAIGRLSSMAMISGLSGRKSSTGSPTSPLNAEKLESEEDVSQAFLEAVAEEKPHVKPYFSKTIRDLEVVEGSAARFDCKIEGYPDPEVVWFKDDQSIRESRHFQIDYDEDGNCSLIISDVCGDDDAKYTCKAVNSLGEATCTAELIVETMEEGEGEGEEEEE
MAPK10 (human), sequence (P53779 whole entry, looked up): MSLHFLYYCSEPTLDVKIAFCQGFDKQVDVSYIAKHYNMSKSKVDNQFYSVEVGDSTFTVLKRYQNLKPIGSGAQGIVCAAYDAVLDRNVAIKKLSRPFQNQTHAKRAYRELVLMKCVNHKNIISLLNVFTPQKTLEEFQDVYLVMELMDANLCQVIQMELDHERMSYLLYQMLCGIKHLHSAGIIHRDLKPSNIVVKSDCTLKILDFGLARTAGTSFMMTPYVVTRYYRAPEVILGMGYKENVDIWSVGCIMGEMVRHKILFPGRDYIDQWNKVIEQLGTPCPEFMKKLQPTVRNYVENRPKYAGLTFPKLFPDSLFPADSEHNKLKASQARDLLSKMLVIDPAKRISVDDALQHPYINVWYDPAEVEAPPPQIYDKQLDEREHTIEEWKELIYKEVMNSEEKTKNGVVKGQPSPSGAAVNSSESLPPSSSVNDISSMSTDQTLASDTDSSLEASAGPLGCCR

inhibition (AURKA (human)) [%] | inhibition (AURKB (human)) [%] | inhibition (BRSK2 (human)) [%] | inhibition (BTK (human)) [%] | inhibition (CAMKK2 (human)) [%] | inhibition (CHEK1 (human)) [%] | inhibition (CaMK1 (human)) [%] | inhibition (DAPK1 (human)) [%] | inhibition (DYRK1A (human)) [%] | inhibition (DYRK3 (human)) [%] | inhibition (EPHB1 (human)) [%] | inhibition (ERBB4 (human)) [%] | inhibition (GSK3B (human)) [%] | inhibition (HIPK1 (human)) [%] | inhibition (HIPK3 (human)) [%] | inhibition (IKBKE (human)) [%] | inhibition (MAP2K1 (human)) [%] | inhibition (MAP2K6 (human)) [%] | inhibition (MAP3K9 (human)) [%] | inhibition (MAPK10 (human)) [%] | Compound | also measured
1 | 19 | 9 | 29 | 0 | 0 | 66 | 0 | 36 | 36 | 4 | 17 | 62 | 13 | 0 | 32 | 23 | 18 | 4 | 3 | COc1ccc(-c2cc3c(=O)[nH]cnc3s2)cc1OC | inhibition (MAPK15 (human)): 18%; inhibition (MAPKAPK2 (human)): 8%; inhibition (MARK2 (human)): 0%; inhibition (MYLK (human)): 0%; inhibition (NEK6 (human)): 60%; inhibition (NTRK1 (human)): 15%; inhibition (NUAK1 (human)): 0%; inhibition (PAK7 (human)): 0%; inhibition (PHKG1 (human)): 13%; inhibition (PIM3 (human)): 61%; inhibition [1]: 0%; inhibition (PRKCA (human)): 18%; inhibition (PRKCG (human)): 0%; inhibition (RIPK2 (human)): 65%; inhibition [2]: 30%; inhibition (SRC (human)): 0%; inhibition (STK33 (human)): 0%; inhibition (SYK (human)): 0%; inhibition (TBK1 (human)): 3%; inhibition (TEK (human)): 0%
8 | 0 | 18 | 16 | 0 | 0 | 6 | 0 | 5 | 10 | 3 | 34 | 13 | 0 | 0 | 0 | 57 | 0 | 0 | 0 | O=c1c(NC(=S)NCc2ccccc2)cnc2[nH]ccn12 | inhibition (MAPK15 (human)): 3%; inhibition (MAPKAPK2 (human)): 23%; inhibition (MARK2 (human)): 0%; inhibition (MYLK (human)): 0%; inhibition (NEK6 (human)): 6%; inhibition (NTRK1 (human)): 0%; inhibition (NUAK1 (human)): 0%; inhibition (PAK7 (human)): 0%; inhibition (PHKG1 (human)): 24%; inhibition (PIM3 (human)): 0%; inhibition [1]: 0%; inhibition (PRKCA (human)): 2%; inhibition (PRKCG (human)): 0%; inhibition (RIPK2 (human)): 0%; inhibition [2]: 9%; inhibition (SRC (human)): 0%; inhibition (STK33 (human)): 13%; inhibition (SYK (human)): 12%; inhibition (TBK1 (human)): 0%; inhibition (TEK (human)): 0%
52 | 76 | 28 | 67 | 54 | 45 | 41 | 31 | 77 | 76 | 48 | 83 | 72 | 28 | 16 | 39 | 37 | 3 | 81 | 47 | Nc1nc2cnc(-c3ccccc3)cn2n1 | inhibition (MAPK15 (human)): 74%; inhibition (MAPKAPK2 (human)): 56%; inhibition (MARK2 (human)): 2%; inhibition (MYLK (human)): 19%; inhibition (NEK6 (human)): 1%; inhibition (NTRK1 (human)): 61%; inhibition (NUAK1 (human)): 73%; inhibition (PAK7 (human)): 79%; inhibition (PHKG1 (human)): 83%; inhibition (PIM3 (human)): 55%; inhibition [1]: 7%; inhibition (PRKCA (human)): 2%; inhibition (PRKCG (human)): 24%; inhibition (RIPK2 (human)): 56%; inhibition [2]: 9%; inhibition (SRC (human)): 48%; inhibition (STK33 (human)): 20%; inhibition (SYK (human)): 84%; inhibition (TBK1 (human)): 72%; inhibition (TEK (human)): 39%
89 | 81 | 43 | 67 | 0 | 0 | 60 | 0 | 55 | 12 | 0 | 65 | 51 | 11 | 23 | 13 | 72 | 10 | 79 | 33 | Nc1cnc2c(-c3c(F)cccc3F)cccn2c1=O | inhibition (MAPK15 (human)): 36%; inhibition (MAPKAPK2 (human)): 20%; inhibition (MARK2 (human)): 53%; inhibition (MYLK (human)): 25%; inhibition (NEK6 (human)): 0%; inhibition (NTRK1 (human)): 88%; inhibition (NUAK1 (human)): 76%; inhibition (PAK7 (human)): 35%; inhibition (PHKG1 (human)): 38%; inhibition (PIM3 (human)): 35%; inhibition [1]: 40%; inhibition (PRKCA (human)): 36%; inhibition (PRKCG (human)): 25%; inhibition (RIPK2 (human)): 3%; inhibition [2]: 0%; inhibition (SRC (human)): 35%; inhibition (STK33 (human)): 4%; inhibition (SYK (human)): 30%; inhibition (TBK1 (human)): 23%; inhibition (TEK (human)): 42%
2 | 32 | 32 | 1 | 0 | 0 | 35 | 0 | 36 | 49 | 0 | 28 | 64 | 0 | 0 | 0 | 7 | 1 | 0 | 9 | CC1CN(c2nc3ccccn3c(=O)c2N)CC(C)O1 (stereo not given) | inhibition (MAPK15 (human)): 0%; inhibition (MAPKAPK2 (human)): 0%; inhibition (MARK2 (human)): 13%; inhibition (MYLK (human)): 0%; inhibition (NEK6 (human)): 0%; inhibition (NTRK1 (human)): 37%; inhibition (NUAK1 (human)): 3%; inhibition (PAK7 (human)): 0%; inhibition (PHKG1 (human)): 3%; inhibition (PIM3 (human)): 1%; inhibition [1]: 2%; inhibition (PRKCA (human)): 15%; inhibition (PRKCG (human)): 0%; inhibition (RIPK2 (human)): 28%; inhibition [2]: 0%; inhibition (SRC (human)): 73%; inhibition (STK33 (human)): 8%; inhibition (SYK (human)): 13%; inhibition (TBK1 (human)): 0%; inhibition (TEK (human)): 5%
